From ChEMBL document CHEMBL1201862, “PubChem BioAssay data set” (2004)
Active and inactive are the calls of the source.

Assays:
Phospholipase A2 = Phospholipase A2 (Homo sapiens, UniProt P04054); assay type: functional;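 further: confirmatory dose-response counterscreen on phospholipase A2, testing hits that came from an ultra-high-throughput screen for ATG4B inhibitors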
Caspase-3 = target: T1, Caspase-3 (Homo sapiens, UniProt P42574); assay type: functional;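 further: Dose-response selectivity test against caspase-3 for candidate inhibitors of sentrin-specific proteases (SENPs)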
T1 sequence (P42574 whole entry): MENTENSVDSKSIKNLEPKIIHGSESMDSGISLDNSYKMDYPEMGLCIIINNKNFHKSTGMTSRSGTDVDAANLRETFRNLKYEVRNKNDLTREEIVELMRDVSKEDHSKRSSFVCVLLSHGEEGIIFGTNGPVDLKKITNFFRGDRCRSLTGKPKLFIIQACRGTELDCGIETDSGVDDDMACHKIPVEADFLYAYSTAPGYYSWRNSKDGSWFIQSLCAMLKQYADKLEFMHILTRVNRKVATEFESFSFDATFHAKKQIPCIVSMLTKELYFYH

[1] = target: T2, Sentrin-specific protease 7 (Homo sapiens, UniProt Q9BQF6); assay type: functional;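 further: Luminescence-based dose-response confirmation of ultra-high-throughput screening hits, measuring inhibition of SENP7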
T2 sequence (Q9BQF6 whole entry): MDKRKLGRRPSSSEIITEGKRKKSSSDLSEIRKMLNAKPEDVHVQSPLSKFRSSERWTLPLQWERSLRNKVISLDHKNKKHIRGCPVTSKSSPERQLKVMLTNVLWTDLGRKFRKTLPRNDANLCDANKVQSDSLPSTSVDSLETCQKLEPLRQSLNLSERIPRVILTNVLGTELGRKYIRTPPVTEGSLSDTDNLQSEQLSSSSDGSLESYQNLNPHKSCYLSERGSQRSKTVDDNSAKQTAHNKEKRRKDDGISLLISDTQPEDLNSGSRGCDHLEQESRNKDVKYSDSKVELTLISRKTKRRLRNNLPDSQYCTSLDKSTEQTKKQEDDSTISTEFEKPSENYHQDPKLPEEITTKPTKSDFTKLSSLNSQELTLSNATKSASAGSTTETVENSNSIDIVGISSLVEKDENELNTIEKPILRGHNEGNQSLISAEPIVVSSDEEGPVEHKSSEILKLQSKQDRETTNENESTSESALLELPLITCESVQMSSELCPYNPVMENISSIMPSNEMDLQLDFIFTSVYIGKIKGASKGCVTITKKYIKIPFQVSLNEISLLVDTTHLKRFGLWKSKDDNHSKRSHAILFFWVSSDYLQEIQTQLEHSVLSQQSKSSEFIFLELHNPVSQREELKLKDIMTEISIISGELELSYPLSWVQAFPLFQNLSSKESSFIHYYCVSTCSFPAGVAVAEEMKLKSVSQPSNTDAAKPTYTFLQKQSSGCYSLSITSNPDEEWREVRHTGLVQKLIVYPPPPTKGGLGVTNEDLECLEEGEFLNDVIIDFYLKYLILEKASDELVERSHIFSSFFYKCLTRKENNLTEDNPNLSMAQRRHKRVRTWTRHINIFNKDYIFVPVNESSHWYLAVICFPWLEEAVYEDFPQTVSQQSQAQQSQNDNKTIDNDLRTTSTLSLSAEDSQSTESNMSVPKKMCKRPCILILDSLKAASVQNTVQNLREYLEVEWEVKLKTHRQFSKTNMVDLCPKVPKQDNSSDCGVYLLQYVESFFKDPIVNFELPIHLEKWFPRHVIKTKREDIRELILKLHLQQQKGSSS

[2] = target: T3, Sentrin-specific protease 6 (Homo sapiens, UniProt Q9GZR1); assay type: functional;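 further: Luminescence-based dose-response confirmatory assay of SENP6 inhibition, following up an ultra-high-throughput screen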
T3 sequence (Q9GZR1 whole entry): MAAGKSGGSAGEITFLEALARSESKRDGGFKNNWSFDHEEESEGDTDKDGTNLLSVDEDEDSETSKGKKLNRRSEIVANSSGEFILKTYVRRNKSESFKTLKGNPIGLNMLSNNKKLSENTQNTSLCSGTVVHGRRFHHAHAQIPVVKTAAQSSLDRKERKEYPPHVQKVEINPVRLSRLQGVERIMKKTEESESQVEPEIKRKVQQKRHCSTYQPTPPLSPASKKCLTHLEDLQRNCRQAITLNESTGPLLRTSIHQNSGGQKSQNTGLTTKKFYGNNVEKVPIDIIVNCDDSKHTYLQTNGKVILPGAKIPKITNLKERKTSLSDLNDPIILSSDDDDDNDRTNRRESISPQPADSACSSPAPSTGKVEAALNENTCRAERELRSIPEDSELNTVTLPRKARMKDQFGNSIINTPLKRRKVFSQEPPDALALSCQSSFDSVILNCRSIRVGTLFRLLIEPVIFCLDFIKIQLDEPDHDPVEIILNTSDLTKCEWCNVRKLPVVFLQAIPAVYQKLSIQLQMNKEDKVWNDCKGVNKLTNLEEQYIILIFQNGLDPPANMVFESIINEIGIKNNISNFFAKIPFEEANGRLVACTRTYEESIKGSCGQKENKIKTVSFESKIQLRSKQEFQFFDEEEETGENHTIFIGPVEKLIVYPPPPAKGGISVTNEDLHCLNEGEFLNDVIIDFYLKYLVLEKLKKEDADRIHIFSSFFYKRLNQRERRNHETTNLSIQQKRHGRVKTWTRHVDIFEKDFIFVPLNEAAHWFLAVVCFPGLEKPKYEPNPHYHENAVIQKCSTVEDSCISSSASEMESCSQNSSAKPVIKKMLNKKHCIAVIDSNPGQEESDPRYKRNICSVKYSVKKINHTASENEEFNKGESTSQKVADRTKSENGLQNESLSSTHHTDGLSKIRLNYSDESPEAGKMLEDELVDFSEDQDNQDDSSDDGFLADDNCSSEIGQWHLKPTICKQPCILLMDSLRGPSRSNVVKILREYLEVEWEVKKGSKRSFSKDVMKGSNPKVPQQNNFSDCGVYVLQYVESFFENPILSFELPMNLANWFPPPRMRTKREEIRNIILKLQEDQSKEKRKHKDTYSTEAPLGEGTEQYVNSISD

[3] = target: T4, Sentrin-specific protease 8 (Homo sapiens, UniProt Q96LD8); assay type: functional;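 further: luminescence read-out of SENP8 inhibition, dose-response confirmation following an ultra-high-throughput screen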
T4 sequence (Q96LD8 whole entry): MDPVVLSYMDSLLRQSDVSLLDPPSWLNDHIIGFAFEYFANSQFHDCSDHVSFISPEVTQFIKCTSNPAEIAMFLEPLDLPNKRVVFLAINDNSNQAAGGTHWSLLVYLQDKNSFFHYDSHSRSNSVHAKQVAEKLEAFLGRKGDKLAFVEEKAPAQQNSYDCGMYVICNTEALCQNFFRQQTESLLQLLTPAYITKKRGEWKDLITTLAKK

Escherichia coli [4] = test: microbe, parasite or virus in culture
Escherichia coli [5] = test: microbe, parasite or virus in culture; remark: listed apart in the source
[6] = Luminescence Cell-Based Dose Response HTS to Identify Inhibitors of 5'UTR Stem-Loop Driven Prion Protein mRNA Translation in H4 Neuroglioblastoma Cells. [Related pubchem assays: 1827 (Project Summary), 1813 (Primary HTS)]; assay type: functional
[7] = inhibitors of SNCA 5'UTR-driven reporter translation, confirmation, H4 neuroglioma cells, luminescence (AID 1988); assay type: functional, cell-based
HEK293 = test: inhibitors of LMP1-driven NF-kB reporter, dose response, cell-based, HEK293, luciferase, cherry-pick (AID 588343); assay type: functional, Homo sapiens
[8] = target: T5, Latent membrane protein 1 (Human herpesvirus 4 (strain B95-8), UniProt P03230); test: TES1-eGFP NF-kB reporter inhibition versus Tet-On dsRED, dose response, selectivity assay for LMP1 NF-kB inhibitor project, imaging, HEK293T, dual-color eGFP/dsRED, cherry-picks (AID 588398); assay type: functional, cell-based
T5 sequence (P03230 whole entry): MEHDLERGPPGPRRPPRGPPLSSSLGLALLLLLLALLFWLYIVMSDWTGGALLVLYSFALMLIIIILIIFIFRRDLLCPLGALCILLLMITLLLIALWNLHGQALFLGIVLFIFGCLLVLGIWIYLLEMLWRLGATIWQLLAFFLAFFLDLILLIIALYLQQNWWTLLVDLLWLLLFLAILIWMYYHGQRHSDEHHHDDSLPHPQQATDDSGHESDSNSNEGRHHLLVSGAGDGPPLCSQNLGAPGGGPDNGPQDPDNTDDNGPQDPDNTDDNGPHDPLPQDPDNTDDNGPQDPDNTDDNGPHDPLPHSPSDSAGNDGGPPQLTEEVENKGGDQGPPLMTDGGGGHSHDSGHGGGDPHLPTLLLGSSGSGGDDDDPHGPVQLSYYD

[9] = inhibitors of firefly luciferase expression or activity, dose response, H4 neuroglioma cells, luminescence (AID 1990); assay type: functional, cell-based
Cytochrome P450 2C19 = Cytochrome P450 2C19 (Homo sapiens, UniProt P33261); test: Cytochrome panel assay with activity outcomes. Panel member name: p450-cyp2c19 Compounds with AC50 equal or less than 10 uM are considered active; assay type: functional; settings: read-out: AC50
Cytochrome P450 1A2 = target: T6, Cytochrome P450 1A2 (Homo sapiens, UniProt P05177);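 further: PubChem cytochrome P450 panel assay, CYP1A2 panel member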
T6 sequence (P05177 whole entry): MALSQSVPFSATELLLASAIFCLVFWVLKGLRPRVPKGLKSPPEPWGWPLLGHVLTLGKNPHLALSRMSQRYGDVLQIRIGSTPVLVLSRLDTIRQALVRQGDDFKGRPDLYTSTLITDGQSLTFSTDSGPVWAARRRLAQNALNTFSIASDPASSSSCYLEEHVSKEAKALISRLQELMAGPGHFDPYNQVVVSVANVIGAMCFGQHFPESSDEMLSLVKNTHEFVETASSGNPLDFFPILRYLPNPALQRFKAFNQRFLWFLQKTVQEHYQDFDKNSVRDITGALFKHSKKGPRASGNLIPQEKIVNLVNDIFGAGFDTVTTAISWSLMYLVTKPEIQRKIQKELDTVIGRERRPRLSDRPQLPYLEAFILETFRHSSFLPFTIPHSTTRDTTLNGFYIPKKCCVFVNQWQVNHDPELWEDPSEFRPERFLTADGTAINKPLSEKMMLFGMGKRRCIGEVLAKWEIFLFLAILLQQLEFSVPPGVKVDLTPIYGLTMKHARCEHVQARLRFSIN

Cytochrome P450 3A4 = Cytochrome P450 3A4 (Homo sapiens, UniProt P08684);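 further: CYP3A4 tested as one member of a cytochrome P450 panel screen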
Cytochrome P450 2C9 = Cytochrome P450 2C9 (Homo sapiens, UniProt P11712)
[10] = target: T7, Mitochondrial peptide methionine sulfoxide reductase (Bos taurus, UniProt P54149); assay type: functional;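 further: absorbance read-out, biochemical high-throughput dose-response screen for MsrA inhibitors, confirmatory; recombinant bovine MsrA coupled to E. coli TrxB with NADPH and selenocystamine; potency is for inhibitors of MsrA activity on DMSO substrate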
T7 sequence (P54149 whole entry): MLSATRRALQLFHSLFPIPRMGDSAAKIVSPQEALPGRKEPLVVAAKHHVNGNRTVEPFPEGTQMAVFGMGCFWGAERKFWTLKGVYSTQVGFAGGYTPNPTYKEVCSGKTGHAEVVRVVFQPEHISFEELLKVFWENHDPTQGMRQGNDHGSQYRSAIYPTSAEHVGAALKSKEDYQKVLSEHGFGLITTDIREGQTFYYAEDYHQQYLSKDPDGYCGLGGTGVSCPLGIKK

Cytochrome P450 2C9, sequence (P11712 whole entry): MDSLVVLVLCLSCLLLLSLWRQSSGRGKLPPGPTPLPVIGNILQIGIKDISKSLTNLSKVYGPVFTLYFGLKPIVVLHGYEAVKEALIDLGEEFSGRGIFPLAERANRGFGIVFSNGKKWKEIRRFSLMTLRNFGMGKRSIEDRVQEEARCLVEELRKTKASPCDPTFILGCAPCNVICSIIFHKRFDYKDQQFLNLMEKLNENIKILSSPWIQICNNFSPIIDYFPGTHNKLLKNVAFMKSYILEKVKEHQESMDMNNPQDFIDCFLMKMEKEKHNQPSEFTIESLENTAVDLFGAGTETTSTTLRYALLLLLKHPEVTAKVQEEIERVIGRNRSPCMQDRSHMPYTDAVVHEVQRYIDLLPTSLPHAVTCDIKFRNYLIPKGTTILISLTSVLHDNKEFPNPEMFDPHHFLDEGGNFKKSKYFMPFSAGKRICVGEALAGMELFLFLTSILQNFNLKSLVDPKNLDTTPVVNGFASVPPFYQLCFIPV
Cytochrome P450 2C19, sequence (P33261 whole entry): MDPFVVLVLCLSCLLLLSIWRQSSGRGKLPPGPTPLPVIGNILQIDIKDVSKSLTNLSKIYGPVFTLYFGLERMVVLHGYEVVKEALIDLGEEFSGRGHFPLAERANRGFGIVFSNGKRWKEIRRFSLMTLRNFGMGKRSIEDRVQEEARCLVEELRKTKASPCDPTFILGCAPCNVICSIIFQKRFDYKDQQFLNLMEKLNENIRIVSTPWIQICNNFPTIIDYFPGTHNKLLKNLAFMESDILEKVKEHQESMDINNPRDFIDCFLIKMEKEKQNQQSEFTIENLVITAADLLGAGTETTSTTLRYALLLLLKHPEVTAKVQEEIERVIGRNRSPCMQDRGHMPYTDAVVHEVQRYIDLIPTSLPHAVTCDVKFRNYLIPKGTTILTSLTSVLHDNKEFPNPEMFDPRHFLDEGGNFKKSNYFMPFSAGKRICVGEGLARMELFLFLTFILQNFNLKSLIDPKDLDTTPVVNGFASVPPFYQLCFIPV
Phospholipase A2, sequence (P04054 whole entry): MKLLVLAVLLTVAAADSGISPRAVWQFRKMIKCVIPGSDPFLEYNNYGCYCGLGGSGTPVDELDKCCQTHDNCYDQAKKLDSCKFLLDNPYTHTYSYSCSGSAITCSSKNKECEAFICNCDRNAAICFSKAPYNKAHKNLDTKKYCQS
Cytochrome P450 3A4, sequence (P08684 whole entry): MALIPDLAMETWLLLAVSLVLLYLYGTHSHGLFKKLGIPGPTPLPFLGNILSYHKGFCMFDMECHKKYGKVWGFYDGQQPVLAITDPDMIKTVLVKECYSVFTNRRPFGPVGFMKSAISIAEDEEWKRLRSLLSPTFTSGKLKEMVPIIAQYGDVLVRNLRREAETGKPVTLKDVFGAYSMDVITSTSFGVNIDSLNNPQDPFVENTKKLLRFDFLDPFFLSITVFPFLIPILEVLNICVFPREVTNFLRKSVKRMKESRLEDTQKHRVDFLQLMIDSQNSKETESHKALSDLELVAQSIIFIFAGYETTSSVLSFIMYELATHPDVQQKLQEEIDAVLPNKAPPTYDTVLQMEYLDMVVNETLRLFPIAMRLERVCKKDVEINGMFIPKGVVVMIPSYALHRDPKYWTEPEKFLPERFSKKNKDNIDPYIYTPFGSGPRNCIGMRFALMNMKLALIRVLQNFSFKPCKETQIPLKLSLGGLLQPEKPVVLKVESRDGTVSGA

CC(C)(C)C(=O)CSc1ncnc2sc3c(c12)CCC3
IC50 (Phospholipase A2): 2.59 µM (active)

CC(C)C(=O)Nc1ccc2nn(-c3ccccc3)nc2c1
IC50 (Caspase-3): 26.7 µM (active)
IC50 [1]: 8.73 µM (active)
IC50 [2]: > 100 µM (inactive)
IC50 [3]: > 100 µM (inactive)

COc1ccc(S(=O)(=O)N2CCCC2)c(Cl)c1Cl
AC50 (Escherichia coli [4]): 71.3 µM (active)
AC50 (Escherichia coli [5]): 37.7 µM (active)

c1ccc(-c2cn3c4c(sc3n2)CCCC4)cc1
EC50 [6]: 6.75 µM (active)
EC50 [7]: 6.38 µM (active)
AC50 (HEK293; hek293): 2.07 µM (active)
AC50 [8]: 47.1 µM (active)

N#CC1=C(N)N2C(=C(C#N)C1c1cccc(Br)c1)Nc1ccccc12 (configuration not stated)
EC50 [9]: 11.3 µM (active)
EC50 [6]: 14.6 µM (active)
EC50 [7]: 12.9 µM (active)
AC50 (HEK293; Homo sapiens, HEK293): 3.62 µM (active)
AC50 [8]: 54 µM (active)

C[C@H]1c2cccc(O)c2C(=O)C2=C(O)C3(O)C(O)=C(C(N)=O)C(=O)[C@@H](N(C)C)[C@@H]3[C@@H](O)[C@@H]21 (some centres not stated)
AC50 (Escherichia coli [4]): 30 µM (active)
AC50 (Escherichia coli [5]): 1.13 µM (active)

Cc1ccccc1-c1nc2cc(Cl)ccc2o1
IC50 (Caspase-3): 12.9 µM (active)
IC50 [1]: 4.69 µM (active)
IC50 [2]: 13.7 µM (active)
IC50 [3]: 79.7 µM (active)

Cn1cccc1C(=O)N1CCC2(CC1)CN(c1cccc(-c3ccccc3)c1)C2
AC50 (Cytochrome P450 2C19): 39.8 µM (inconclusive)
AC50 (Cytochrome P450 1A2): 25.1 µM (inconclusive)
AC50 (Cytochrome P450 3A4): inconclusive
AC50 (Cytochrome P450 2C9): inconclusive

Cc1cc(C)n(-c2ccc(NC(=O)C3CCN(Cc4ccccn4)CC3)cc2)n1
AC50 (Escherichia coli [4]): 39.4 µM (active)
AC50 (Escherichia coli [5]): 51.6 µM (active)

CCOP(=O)(Nc1ccc2c(c1)C(=NNC(N)=S)c1ccccc1-2)OCC
IC50 [10]: 95.9 µM (inactive)

O=Cc1cc(OCc2ccccc2)ccc1[B-](F)(F)F
AC50 (HEK293; Homo sapiens, HEK293): 2.86 µM (active)
AC50 [8]: 1.14 µM (active)

CO[C@H]1/C=C/O[C@@]2(C)Oc3c(C)c(O)c4c(O)c(c(/C=N/N5CCN(C)CC5)c(O)c4c3C2=O)NC(=O)/C(C)=C\C=C\[C@H](C)[C@H](O)[C@@H](C)[C@@H](O)[C@@H](C)[C@H](OC(C)=O)[C@@H]1C [RIFAMPIN]
AC50 (Escherichia coli [5]): 32.3 µM (active)
